Consider 36 compounds from PubChem BioAssay (NCI).

Where “and” joins values, the source holds several entries; their conditions need not be identical. Equal entries are not always repeated.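 48-hour exposure; five concentrations; linearly interpolated endpoints. GI50 marks 50% less growth. TGI: concentration producing complete growth inhibition.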 Where a SMILES comes first, the peptide text is derived from it. The star is where a group is joined. Trt = c1ccc(C(c2ccccc2)(c2ccccc2)*)cc1; Cbz = O=C(OCc1ccccc1)* A value given as a limit tells only on which side of the number the result lay.

The subject of the experiment is MDA-MB-468 breast. The experiment in a line: growth of human tumour cells (NCI), 48 h.
For `Cc1c(Cl)c(C)c(Cc2c(C)c(Cl)c(C)c(Cl)c2O)c(O)c1Cl`, the GI50 is 1.82 µM and the TGI is 8.4 µM. The like results for `CCCCCCCCCCSC(=N)N` were, in that order, 1.66 µM and 3.2 µM. As to `COc1cc(OC)c(/C=C/S(=O)(=O)Cc2ccc(OC)c(NCC(=O)NO)c2)c(OC)c1`, the GI50 was 0.0293 µM and the TGI is more than 100 µM.

Consider `O=C1/C(=C\c2ccccc2)C2OCC=C3CN4CCC56c7ccccc7N1C5C2C3CC46` (stereo unspecified), for which the GI50 was 3.31 µM and the TGI came to 26.1 µM. Taken in the same sequence, the figures for `C=C(C)[C@@H]1CC[C@]2(C(=O)NC(C)=O)CC[C@]3(C)[C@H](CC[C@@H]4[C@@]5(C)CCCNC(C)(C)[C@@H]5CC[C@]43C)[C@@H]12` were 1.6 µM and 3.1 µM. The like results for `O=C(Nc1cccc(C(F)(F)F)c1)c1cc2ccccc2cc1O` were, in that order, 2.2 µM and more than 51.6 µM. The like results for `C/C(=N\NC(=O)CSc1nc2sc3c(c2c(=O)n1-c1ccccc1)CCC(C)C3)c1ccc(Cl)cc1` (stereo unspecified) were, in that order, 1.55 µM and 5.92 µM. On to `C=C(C)[C@@H]1CC[C@]2(CO)CC[C@]3(C)[C@H](CC[C@@H]4[C@@]5(C)CC[C@H](NCO)C(C)(C)[C@@H]5CC[C@]43C)[C@@H]12`, for which the GI50 was 0.854 µM and the TGI came out at 1.71 µM. For the compound `CCOC(=O)c1c(NCC(=O)Nc2ccc(Br)cc2)sc2c1CCCC2`, the GI50 is 1.95 µM and the TGI was determined as 4.53 µM.

Consider `O=C(NOCCO)c1cc(CN2OCCCC2=O)c(F)c(F)c1Nc1ccc(I)cc1F`, for which the GI50 was 14.2 µM and > 10 µM; the TGI was 66.7 µM and > 10 µM.

With `NC(=O)c1ccc(N(C(N)=O)c2c(F)cccc2F)nc1-c1ccc(F)cc1F`, the GI50 was more than 100 µM and the TGI was more than 100 µM.

`COc1ccc(-c2n/c(=C\c3c(O)[nH]c4ccccc34)cc3c2=Nc2ccccc2-3)cc1`: the GI50 was 0.368 µM and the TGI is 1.43 µM. The like results for `Cc1ccc(-c2n[nH]c(=O)c3noc(-c4ccc(C)cc4)c23)cc1` were, in that order, 0.37 µM and 4.88 µM. For the compound `Cn1cc(-c2nc(N[C@@H]3CCCC[C@@H]3N)c(F)c3c2C(=O)NC3)cn1`, the GI50 was 13 µM and 16.9 µM; the TGI was 44.9 µM and 69.9 µM. `Nc1c(C(=O)Nc2cccc3ccccc23)sc2nc3c(cc12)C(=O)CCC3`: the GI50 was 0.195 µM and the TGI is more than 45 µM.

`COc1cccc2c1cc1c3c(cc4c(c32)OCO4)C(=O)N1`: the GI50 is 2.04 µM and the TGI came to 6.22 µM. Regarding `O=C(C=C=Nc1ccccc1)C(=O)N=C=Cc1ccccc1`, the GI50 is 2.1 µM and the TGI was determined as 4.93 µM.

Regarding `COc1cc(/C=N/NC(=O)c2ccccc2Nc2cccc(C(F)(F)F)c2)cc(OC)c1OC`, the GI50 was 1.75 µM and the TGI came out at 11.8 µM. Turning to `COC(=O)C(CSC(c1ccccc1)(c1ccccc1)c1ccccc1)NC(=O)C(CC(N)=O)NC(=O)OCc1ccccc1` (stereo not drawn) (Cbz-Asn-Cys(Trt)-OMe; configuration not given here), the GI50 is 3.13 µM and the TGI was 14.6 µM.

Consider `Cc1cc2nc3c4ccc(Br)cc4n(CCN(C)C)c3nc2cc1C`, for which the GI50 was 1.21 µM and the TGI turned out to be 2.91 µM. Taken in the same sequence, the figures for `O=C(CCCCCCCCC(=O)N/N=C\c1cc(Cl)ccc1O)N/N=C\c1cc(Cl)ccc1O` were 1.44 µM and 7.36 µM.

For `COc1ccc(C2=Nc3c/c(=C\c4c(O)[nH]c5cc(Cl)ccc45)ccc3=N2)cc1`, the GI50 is 3.06 µM and the TGI amounted to 10.4 µM. Taken in the same sequence, the figures for `Cn1cc(C2=C(c3cn(CCCCC(=N)N)c4ccccc34)C(=O)NC2=O)c2ccccc21` were 9.81 µM and more than 25 µM.

On to `Cc1cc(Nc2nc(-c3ccncc3)nc3ccccc23)n[nH]1`, for which the GI50 was 6.81 µM and the TGI is more than 100 µM. Taken in the same sequence, the figures for `C=CC(C)(O)CC/C=C(\CO)C(=O)OC1C(C)OC(O[C@](C)(C=C)CC/C=C(\CO)C(=O)O[C@H]2C[C@@]3(C(=O)OC4OC(CO)C(O)C(O)C4OC4OC(C)C(OC5OC(CO)C(O)C5O)C(OC5OC(CO)C(O)C(O)C5O)C4O)C(CC2(C)C)C2=CCC4[C@@]5(C)CC[C@H](OC6OC(COC7OC(C)C(O)C(O)C7OC7OCC(O)C(O)C7O)C(O)C(O)C6NC(C)=O)C(C)(C)C5CC[C@@]4(C)[C@]2(C)C[C@H]3O)C(O)C1O` (stereo partly specified) were 0.189 µM and 0.848 µM. For the compound `COc1ccc(C(=O)c2cc3c(N)c(C(=O)Nc4cccc(OC)c4)sc3nc2C)cc1`, the GI50 was 0.396 µM. With `CCN(CC)Cc1cc(Nc2c3ccccc3nc3cc(Cl)ccc23)ccc1O`, the GI50 is 1.5 µM and the TGI turned out to be 3.06 µM. Regarding `CN=C(N)N/N=C(\C)c1ccc2c(c1)Cc1ccccc1-2`, the GI50 was 1.79 µM and the TGI came out at 4.4 µM. `Nc1nc(N)c2c(n1)NC(c1sc(Cl)nc1Cl)CC(c1ccc3c(c1)OCO3)=N2` (stereo unspecified): the GI50 is 1.65 µM and the TGI was determined as 13.3 µM. Turning to `O=C(/C=C/c1cccc2ccccc12)Nc1ncc(Cc2ccccc2)s1`, the GI50 is 0.665 µM and the TGI is more than 24.9 µM.

Regarding H-QIYKKYRTWYRKAWKVLGKV-NH2, the GI50 is 10.9 µM and the TGI came to 41.9 µM.

Turning to `CCCN1CCC=C(c2ccc(Nc3nc(Nc4ccccc4C(N)=O)c4cc[nH]c4n3)c(C)c2)C1`, the GI50 is more than 14.6 µM and the TGI was more than 25 µM.

Regarding `COc1cc(Cn2c(-c3ccccc3)cc3c2-c2oncc2CC3)cc(OC)c1`, the GI50 is 0.211 µM and the TGI is 0.745 µM.

Take `Cc1c(Cl)cccc1NC(=O)c1sc2nc3c(cc2c1N)CCCC3`: the GI50 is 0.394 µM and the TGI was more than 100 µM. With `O=C(Nc1nc2ccccc2s1)c1cc(-c2ccc(F)cc2)n2nc(-c3ccccc3)cc2n1`, the GI50 was 5.18 µM and the TGI is 36 µM. Taken in the same sequence, the figures for `Oc1ccc(Cl)cc1/C=N\NC(=S)N/N=C/c1cc(Cl)ccc1O` were 1.76 µM and 7.35 µM.
